Reference: patent US20190125826A1, “METHODS AND PHARMACEUTICAL COMPOSITION FOR THE TREATMENT OF INFLAMMATORY SKIN DISEASES ASSOCIATED WITH DESMOGLEIN-1 DEFICIENCY” (INSERM (INSTITUT NATIONAL DE LA SANTÉ ET DE LA MÉDICALE), priority 2016, published 2019)

Biological target: T1, IKK-2 (Homo sapiens, UniProt O14920)
T1 construct: endogenous in cells; host or cells: primary keratinocytes from a healthy control and from Patient#1
T1 sequence (O14920 1-756): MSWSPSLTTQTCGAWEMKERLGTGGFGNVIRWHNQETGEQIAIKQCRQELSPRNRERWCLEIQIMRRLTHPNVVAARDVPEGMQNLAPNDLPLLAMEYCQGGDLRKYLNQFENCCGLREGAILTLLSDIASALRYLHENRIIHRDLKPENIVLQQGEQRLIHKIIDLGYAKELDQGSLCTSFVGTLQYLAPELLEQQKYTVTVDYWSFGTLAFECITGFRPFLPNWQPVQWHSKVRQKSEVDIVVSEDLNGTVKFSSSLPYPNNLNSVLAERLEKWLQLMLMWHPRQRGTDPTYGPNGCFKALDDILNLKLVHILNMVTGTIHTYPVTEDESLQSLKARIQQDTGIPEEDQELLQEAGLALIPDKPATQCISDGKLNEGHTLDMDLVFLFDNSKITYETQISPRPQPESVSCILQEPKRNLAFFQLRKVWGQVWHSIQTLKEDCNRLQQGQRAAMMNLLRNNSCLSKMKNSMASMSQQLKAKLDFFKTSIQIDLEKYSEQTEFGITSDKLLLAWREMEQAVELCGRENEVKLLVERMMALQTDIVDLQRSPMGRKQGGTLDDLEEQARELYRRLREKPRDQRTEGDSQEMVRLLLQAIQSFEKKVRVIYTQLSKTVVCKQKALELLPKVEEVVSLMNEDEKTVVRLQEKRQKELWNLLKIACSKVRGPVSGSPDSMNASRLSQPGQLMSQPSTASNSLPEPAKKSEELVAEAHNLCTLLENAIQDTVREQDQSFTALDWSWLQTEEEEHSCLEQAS
Assay: Inhibition of IKK-2 by ML120B in keratinocytes (IL8 mRNA by RT-qPCR)
Type: cell-based
Conditions: Patient#1 keratinocytes; ML120B 20 μM preincubated 1 h, then 10 ng/ml IL-1β, 24 h
Protocol: Total RNAs were isolated from cultured keratinocytes, HEK293T cells and frozen skin biopsies from the two patients and controls using the RNeasy Plus Minikit (Qiagen GmbH, Hilden, Germany), according to the manufacturer's instructions. RNA samples were reverse-transcribed into cDNA using the High Capacity cDNA Reverse Transcriptase Kit (Applied Biosystems, Foster City, Calif., USA). Real-time PCR was carried out using the Fast SYBR Green PCR Master Mix (PE Applied Biosystems) on an ABI prism 7000 (PE Applied Biosystems). RT-qPCR primers were designed using the sequences available in Ensembl and spanned an intron-exon boundary. The amounts of the various mRNAs were normalized against the amount of beta actin RNA measured by RT-qPCR in each sample. The results were analyzed with DataAssist® (version 3.01, Applied Biosystems), which uses the comparative Ct (ddCt) method.
Keratinocytes from a healthy control and from Patient#1 were seeded into 12-well plates (100 000 cells/well). 24 hours later, keratinocytes were preincubated with ML120B 20 μM at 37° C. for 1 h and then stimulated with 10 ng/ml IL-1β. 24 hours after the stimulation, the cells were pelleted for RNA extraction. ML120B was sent as a gift by Emmanuel Laplantine (Institut Pasteur, Paris, France).

COc1c(Cl)cc2c([nH]c3cnccc32)c1NC(=O)c1cccnc1C [ML120B]
production of IL8: restored the normal production of IL8
